Measurements published in publication PMC2833169, “Anti-malarial activity of a non-piperidine library of next-generation quinoline methanols” (Malaria Journal, 2010).
Converted amounts (≈) assume the structure as drawn. Where two headings read alike, the source gives them in different places.

Tests used:
in vitro = conditions: mouse
Description: (§1) General cytotoxicity was assessed by first determining LC50 's against a rodent macrophage (RAW) cell line using the 3-(4,5-dimethylthiazole-2-yl)-2,5-diphenyltetrazolium bromide (MTT) assay as described in one of our earlier studies. This screen was conducted to identify compounds that may require de-selection due to generalized toxicity. […] In vitro neurocytotoxicity was assessed by determining LC50s against primary mouse neurons using the MTT assay as described previously. Inhibition of the A2A and A1 receptors was determined at 200 nM in duplicate by Caliper Biosciences (Hanover, Maryland).

CYP450 1A2 = molecular target: T1, CYP450 1A2 (Homo sapiens, UniProt P05177); test: CYP450 inhibition kit (drug-drug interaction), 1A2; format: biochemical
T1 construct: purchased BD Gentest (Franklin Lakes, NJ)
T1 sequence (P05177 1-516): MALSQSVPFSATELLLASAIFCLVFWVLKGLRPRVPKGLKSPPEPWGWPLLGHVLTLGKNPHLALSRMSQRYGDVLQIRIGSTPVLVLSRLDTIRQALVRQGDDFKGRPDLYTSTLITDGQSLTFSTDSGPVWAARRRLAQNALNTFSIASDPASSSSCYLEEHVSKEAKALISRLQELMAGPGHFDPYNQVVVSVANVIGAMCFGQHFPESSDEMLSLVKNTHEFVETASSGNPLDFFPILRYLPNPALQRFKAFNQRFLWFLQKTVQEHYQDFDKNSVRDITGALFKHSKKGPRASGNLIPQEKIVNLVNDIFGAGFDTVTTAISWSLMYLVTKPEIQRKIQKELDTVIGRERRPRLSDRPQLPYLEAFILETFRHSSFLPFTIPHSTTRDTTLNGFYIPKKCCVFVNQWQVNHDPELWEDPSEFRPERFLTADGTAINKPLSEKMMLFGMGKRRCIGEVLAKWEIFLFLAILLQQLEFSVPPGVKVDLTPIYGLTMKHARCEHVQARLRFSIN
Description: (§2) Low IC50s against specific cytochrome P450 isoforms may indicate the potential for a harmful drug interaction to occur in vivo with substrates of that isoform. A lack of metabolic stability in vitro may indicate potential metabolic instability in vivo, and, therefore, a shorter half-life. Drug interaction potential was evaluated in vitro using BD Gentest (Franklin Lakes, NJ) CYP450 inhibition kits as recommended by the manufacturer. Metabolic stability assessments were conducted using in vitro liver microsomes. […] The reaction is started with the addition of 1 U/mL glucose-6-phosphate dehydrogenase G6PD. The mixture is incubated on a shaking platform at 37°C, and aliquots are taken and quenched with the addition of an equal volume of cold acetonitrile at 0, 10, 20, 30, and 60 min. Samples are centrifuged at 3700 rpm for […] at 20°C to remove debris. Sample quantification is carried out by LC/MS, and metabolic half-life is calculated by log plots of the total ion chromatograph area remaining.

P. falciparum strain D6 = test: labeled hypoxanthine susceptibility assay, P. falciparum D6; format: cell-based, Plasmodium falciparum; conditions: Plasmodium falciparum
Description: (§3) The in vitro activities of quinoline methanols against P. falciparum strains W2, D6, TM91C235, and TM90C2A were evaluated using the traditional labeled hypoxanthine assay of Desjardins et al as modified by Milhous et al. These four P. falciparum strains were selected since they have various levels of resistance to conventional anti-malarials.

P. falciparum strain W2 = test: labeled hypoxanthine susceptibility assay, P. falciparum W2; format: cell-based, Plasmodium falciparum; conditions: Plasmodium falciparum
Description: as §3

[1] = test system: P. falciparum strain TM90C2A; test: labeled hypoxanthine susceptibility assay, P. falciparum TM90C2A; format: cell-based, Plasmodium falciparum
Description: as §3

CYP450 2C9 = molecular target: T2, CYP450 2C9 (Homo sapiens, UniProt P11712); test: CYP450 inhibition kit (drug-drug interaction), 2C9; format: biochemical
T2 construct: purchased BD Gentest (Franklin Lakes, NJ)
Description: as §2

CYP450 3A4 = molecular target: T3, CYP450 3A4 (Homo sapiens, UniProt P08684); test: CYP450 inhibition kit (drug-drug interaction), 3A4; format: biochemical
T3 construct: purchased BD Gentest (Franklin Lakes, NJ)
Description: as §2

[2] = test system: P. falciparum strain TM91C235; test: labeled hypoxanthine susceptibility assay, P. falciparum TM91C235; format: cell-based, Plasmodium falciparum; conditions: Plasmodium falciparum
Description: as §3

[3] = test system: rodent macrophage (RAW) cell line; test: cells; conditions: Mus musculus, Macrophage, read-out: Macrophage IC50
Description: as §1

[4] = metabolic stability in mouse liver microsomes; format: in vitro ADME; conditions: pH 7.4; mouse liver microsomes, 1 μM; read-out: Half-life in mouse micro
Description: as §2, with “Interesting compounds were also submitted for drug-drug interaction and metabolic stability assays. Low” for “Low”

CYP450 2D6 = molecular target: T4, CYP450 2D6 (Homo sapiens, UniProt P10635); test: CYP450 inhibition kit (drug-drug interaction), 2D6; format: biochemical
T4 construct: purchased BD Gentest (Franklin Lakes, NJ)
Description: as §2

CYP450 2C19 = molecular target: T5, CYP450 2C19 (Homo sapiens, UniProt P33261); test: CYP450 inhibition kit (drug-drug interaction), 2C19; format: biochemical
T5 construct: purchased BD Gentest (Franklin Lakes, NJ)
Description: as §2

[5] = D6, read-out: IC90 Pf D6, P. falciparum D6, mefloquine: historical mean +/- SD (n)
[6] = D6, read-out: PF D6 IC90, P. falciparum D6
[7] = Plasmodium falciparum, TM90C2A, read-out: IC90 Pf C2A
[8] = Plasmodium falciparum, TM90C2A, read-out: IC90 PfC2A
[9] = Plasmodium falciparum, TM90C2A, read-out: PF C2A IC90
[10] = Plasmodium falciparum, TM90C2A, read-out: Pf C2A IC90 nM values calculated using MW in Column C
[11] = Plasmodium falciparum, TM90C2A; read-out: IC90 PfC2A

T4 sequence (P10635 whole entry): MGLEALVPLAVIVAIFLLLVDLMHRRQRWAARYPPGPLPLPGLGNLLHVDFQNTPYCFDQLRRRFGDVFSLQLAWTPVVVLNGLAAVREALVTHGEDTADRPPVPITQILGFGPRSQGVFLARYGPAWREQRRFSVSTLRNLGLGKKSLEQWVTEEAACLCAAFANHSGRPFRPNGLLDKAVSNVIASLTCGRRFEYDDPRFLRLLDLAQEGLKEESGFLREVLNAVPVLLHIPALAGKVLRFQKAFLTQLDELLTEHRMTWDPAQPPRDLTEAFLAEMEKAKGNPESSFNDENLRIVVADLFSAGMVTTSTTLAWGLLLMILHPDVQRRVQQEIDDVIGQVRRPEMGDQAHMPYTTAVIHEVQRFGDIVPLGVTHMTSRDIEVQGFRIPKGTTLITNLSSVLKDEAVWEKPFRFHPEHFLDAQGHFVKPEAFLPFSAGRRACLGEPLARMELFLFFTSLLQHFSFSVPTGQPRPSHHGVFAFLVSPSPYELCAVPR
T5 sequence (P33261 whole entry): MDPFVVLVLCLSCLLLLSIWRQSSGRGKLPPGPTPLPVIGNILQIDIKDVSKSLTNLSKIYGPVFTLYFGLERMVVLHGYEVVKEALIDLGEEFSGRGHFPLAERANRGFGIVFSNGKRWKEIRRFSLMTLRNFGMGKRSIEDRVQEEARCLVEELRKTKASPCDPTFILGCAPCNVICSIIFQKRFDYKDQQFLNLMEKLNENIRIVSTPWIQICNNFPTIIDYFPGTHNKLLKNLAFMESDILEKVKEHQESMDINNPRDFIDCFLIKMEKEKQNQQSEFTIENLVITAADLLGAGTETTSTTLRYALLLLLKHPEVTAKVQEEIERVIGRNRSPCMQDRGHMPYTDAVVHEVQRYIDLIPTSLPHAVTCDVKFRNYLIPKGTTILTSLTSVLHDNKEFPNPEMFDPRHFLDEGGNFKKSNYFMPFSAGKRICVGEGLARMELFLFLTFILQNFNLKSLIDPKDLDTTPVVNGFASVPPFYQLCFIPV
T2 sequence (P11712 whole entry): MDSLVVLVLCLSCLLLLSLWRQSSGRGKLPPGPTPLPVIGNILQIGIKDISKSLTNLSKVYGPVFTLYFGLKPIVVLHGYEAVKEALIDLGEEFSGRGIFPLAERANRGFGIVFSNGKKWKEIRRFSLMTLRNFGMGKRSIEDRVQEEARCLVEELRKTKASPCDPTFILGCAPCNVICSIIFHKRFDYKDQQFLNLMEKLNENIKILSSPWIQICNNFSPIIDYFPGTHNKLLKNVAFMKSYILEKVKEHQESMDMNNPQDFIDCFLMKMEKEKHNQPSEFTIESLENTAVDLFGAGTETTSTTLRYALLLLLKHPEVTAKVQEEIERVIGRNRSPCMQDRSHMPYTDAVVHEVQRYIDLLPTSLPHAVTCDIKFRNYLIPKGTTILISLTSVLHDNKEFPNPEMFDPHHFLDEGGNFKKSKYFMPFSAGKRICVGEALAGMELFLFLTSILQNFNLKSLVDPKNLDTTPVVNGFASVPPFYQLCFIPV
T3 sequence (P08684 whole entry): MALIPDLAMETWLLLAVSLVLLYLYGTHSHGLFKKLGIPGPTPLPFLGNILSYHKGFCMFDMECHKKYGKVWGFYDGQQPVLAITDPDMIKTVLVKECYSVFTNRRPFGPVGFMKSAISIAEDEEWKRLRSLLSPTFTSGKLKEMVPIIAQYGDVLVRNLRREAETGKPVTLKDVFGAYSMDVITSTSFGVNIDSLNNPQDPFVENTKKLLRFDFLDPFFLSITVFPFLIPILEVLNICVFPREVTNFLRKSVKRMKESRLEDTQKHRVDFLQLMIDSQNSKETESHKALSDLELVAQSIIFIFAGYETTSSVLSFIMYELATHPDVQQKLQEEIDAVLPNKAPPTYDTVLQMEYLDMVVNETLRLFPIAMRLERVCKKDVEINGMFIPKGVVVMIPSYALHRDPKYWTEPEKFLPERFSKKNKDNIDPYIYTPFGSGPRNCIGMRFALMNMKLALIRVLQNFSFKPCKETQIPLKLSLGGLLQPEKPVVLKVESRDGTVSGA

Row | Compound | CC50 (in vitro) [µM] | IC50 (CYP450 1A2) [µM] | IC90 (P. falciparum strain D6; [5]) [µg/mL] | IC90 (P. falciparum strain D6; [6]) [µg/mL] | IC90 (P. falciparum strain W2; W2, read-out: IC90 Pf W2) [µg/mL] | IC90 (P. falciparum strain W2; W2, read-out: PF W2 IC90) [µg/mL] | IC90 [1, 7] [µg/mL] | IC90 [1, 8] [nM] | IC90 [1, 9] [µg/mL] | IC90 [1, 10] [nM] | CSI (C2A/W2) ([1]; ratio of IC90 C2A to IC90 W2) | IC50 (CYP450 2C9) [µM] | IC50 (CYP450 3A4) [µM] | IC90 ([2]; read-out: IC90 Pf C235) [µg/mL] | IC90 ([2]; read-out: PF C235 IC90) [µg/mL] | IC50 [3] [µM] | half-life at 1 μM [4] [min] | IC50 (CYP450 2D6) [µM] | IC50 (CYP450 2C19) [µM] | IC90 [1, 11] [nM]
1 | C=CCNCC(O)c1cc(C(F)(F)F)nc2c(C(F)(F)F)cccc12 (centres unmarked) [WR308255] | > 120 | 1.5 | 0.015 (≈ 0.0412 µM) | 0.0145 (≈ 0.0398 µM) | 0.0038 (≈ 0.0104 µM) | 0.00375 (≈ 0.0103 µM) | 0.037 | 101 | 0.0368 | 101 | 9.8 | 25 | 18 | 0.019 (≈ 0.0522 µM) | 0.0187 (≈ 0.0513 µM) | 58.4 | 25 | 2.9 | 25 | –
2 | OC(CNC1CCC1)c1cc(C(F)(F)F)nc2c(C(F)(F)F)cccc12 (centres unmarked) [WR308266] | 59 | 2.4 | 0.025 (≈ 0.0661 µM) | 0.0245 (≈ 0.0647 µM) | 0.0061 (≈ 0.0161 µM) | 0.00609 (≈ 0.0161 µM) | 0.052 | 137 | 0.0517 | 137 | 8.5 | 12 | 5.7 | 0.024 (≈ 0.0634 µM) | 0.0243 (≈ 0.0643 µM) | 13.1 | 22 | 1.4 | 7.6 | –
3 | CCC(CC)CNCC(O)c1cc(C(F)(F)F)nc2c(C(F)(F)F)cccc12 (centres unmarked) [WR308388] | 56 | 1.2 | 0.0067 (≈ 0.0164 µM) | 0.00671 (≈ 0.0164 µM) | 0.0011 (≈ 0.00269 µM) | 0.00112 (≈ 0.00274 µM) | 0.01 | – | 0.0102 | – | 9.1 | 13 | 33 | 0.011 (≈ 0.0269 µM) | 0.0109 (≈ 0.0267 µM) | 15.7 | 16 | 0.8 | 3.4 | 23
4 | CC(C)CC(C)NCC(O)c1cc(C(F)(F)F)nc2c(C(F)(F)F)cccc12 (centres unmarked) [WR308413] | > 120 | 26 | 0.012 (≈ 0.0294 µM) | 0.0116 (≈ 0.0284 µM) | 0.0011 (≈ 0.00269 µM) | 0.001 (≈ 0.00245 µM) | 0.0075 | – | 0.00748 | 18 | 7.5 | 19 | > 40 | 0.015 (≈ 0.0367 µM) | 0.0147 (≈ 0.036 µM) | 8.5 | 19 | 1 | 5.8 | 171
5 | CC1C(NCC(O)c2cc(C(F)(F)F)nc3c(C(F)(F)F)cccc23)CC2CC1C2(C)C (centres unmarked) [WR308446] | 48 | > 40 | 0.014 (≈ 0.0304 µM) | 0.0143 (≈ 0.0311 µM) | < 0.001 | < 0.00048 | 0.016 | – | 0.0155 | – | – | 16 | > 40 | 0.019 (≈ 0.0413 µM) | 0.0189 (≈ 0.041 µM) | 8.85 | 13 | 9.1 | 14 | 34
